Measured values as given in US5723494A, “Derivatives of glutamic and aspartic acids, a method of preparing them, and their use as drugs for enhancing memory and learning” (priority 1993, dated 1998).
Read-outs that look alike come from different tables or passages of the source. Each block holds one molecule with its values, some of them ahead of it.

Columns and labels:
[1] = Antiamnesic activity in the mouse (step-down passive avoidance, amnesia induced by ECS); type: in vivo, mouse (CD1 male)
Description: 1) Antiamnesic activity in the mouse (step-down passive avoidance)
An electroconvulsive shock (ECS) produces retrograde amnesia in the test animal if applied immediately after the training received, for example, a harmful stimulus of a suitable intensity.
The object of the experiment was to study the effects of the compounds of the invention in antagonizing the amnesic effect of an ECS on the short-term memory consolidation process.
CD1 male mice which weighed about 30-35 g, and had not fasted were used. The equipment used was a rectangular plexiglass cage (21×21×40cm) with an electrifiable grid floor and a wooden cube (4×4×4 cm) fixed in the centre of the cage. The animals were treated orally with the product under test 60 minutes before the training.
The mouse was placed delicately on the wooden cube and the time it took to descend to the grid floor (SDL=step-down latency) was measured. When all four of the animal's paws were resting on the floor the continuous 0.2 mA shock started and the time taken by The mouse to remount the wooden cube (EL=escape latency) was measured.
The animals with an SDL of between 3 and 30 sec and with an EL of between 3 and 60 sec were used for retesting.
Immediately afterwards, a transcorneal ECS was applied with the use of the following parameters: amperage 15 mA, frequency 50 Hz, duration of the train of pulses 0.4 sec. duration of each individual pulse 1 msec., interval between pulses 20 msec. As well as the groups treated with ECS, a control group without ECS and a control group with ECS were used.
The retest was carried out after 24 h.
The results are expressed as the percentage variation of the SDL of the treated groups in comparison with the control group by means of this formula: [formula]

[2] = Antidepressant activity in the behavioural despair test in the mouse; type: in vivo, mouse (male CD1); settings: for inhibition in vivo at 3 mg/kg: 3 mg/kg IP; for inhibition in vivo at 10 mg/kg: 10 mg/kg IP; for inhibition in vivo at 30 mg/kg: 30 mg/kg IP
Description: 5) Antidepressant activity in the "behavioural despair test" Another interesting aspect of the pharmacological activity of these products is the potent antidepressant activity which some of them display in an experimental model in the mouse, in which a state of depression is induced experimentally by the method of Porsolt et al. (Arch. Int. Pharmacodyn. 229, p. 327-336 (1977)). Male CDl mice which weighed about 20-25 g and had not fasted were used. The test consisted of inducing a state of depression in the animal which was subjected to forced swimming in a glass cylinder from which it could not escape. After a short period of vigorous activity the mouse adopted a characteristic posture of immobility which was easily identifiable; this immobility is reduced by antidepressant drugs. 1 l glass beakers, filled to 700 ml with water at a temperature of 25° C. were used for the test. The mice, 8 per group, were treated intraperitoneally with the drug under test, 30 minutes before the test. At time 0, each animal was immersed in a beaker and, after one minute during which all moved about swimming vigorously in order to escape, regardless of treatment, the observer, who was unaware of the treatment, assigned the following points: 0=animal immobile 1=minimum movement to remain afloat 2=vigorous swimming The greater the antidepressant activity of the drug, the more the animals will move about in order to try to escape from the water. The points were assigned every 15 sec for a total period of 5 min with a total of 20 observations. The antidepressant activity was determined with the use of various doses of the compound by the regression method as the ED50, that is, the dose in mg/kg of the compound which could antagonise the animal's immobility time by 50%.

[3] = Memory-enhancement activity in the passive avoidance test in the rat; type: in vivo, rat (male Wistar); settings: for change in vivo at 0.1 mg/kg / change in vivo at 1 mg/kg / change in vivo at 10 mg/kg: 96 h, read-out: % variation vs controls (FS) in step through latency
Procedure: 2) Memory-enhancement activity in the "passive avoidance" test in the rat
A "passive avoidance" model was used, which required a single "step-through" situation and a retest of the "retention memory" 72 h after the training.
Male Wistar rats which weighed about 200 g and had not fasted, were used. The test consisted of evaluating the degree of memory of an animal after it had been trained as follows.
The equipment used was a shuttle box modified thus: one compartment was lined with black card including the cover, and a 60 W lamp was disposed above the other, spaced from the grid floor by about 40 cm. The two compartments were divided by an automatic guillotine-like door. Each animal was placed in the compartment in the light with the guillotine-likedoor open. From this moment, the time taken by the rat to go into the compartment lined with black card (the dark compartment) (the step-throughlatency=STL) was measured. The animals which took more than 30 sec to go into the dark were discarded. Once they had gone into the dark, the door was lowered automatically and a=0.1 mA shock lasting 5 sec (a foot shock=FS) started. After 10 sec, the animal was removed from the shuttle box.
Upon completion, the animals were selected randomly in homogeneous groups and treated with the products.
The retest to determine memory was made after 72 hours. The products were administered chronically in the preselected manner twice per day and the last treatment 30 min before the retest (6 treatments altogether).
The memory-retention test (the retest) consisted of placing each animal, treated 30 min beforehand with a physiological solution or with the product, in the compartment which was not lined with black card for 30 sec.
The results are expressed as the percentage variation of the STL (in seconds) of the groups treated in comparison with the control group by means of this formula: [formula]

[4] = target: excitor amino-acid receptors of cortical membranes ("forebrain") of rats; test: Inhibition of the specific binding of [3H]-glutamate to rat forebrain membranes; settings: rat forebrain membranes, 20 min, 37° C., pH 7.1
Description: 6) Studies on binding to rat "forebrain" membranes
L-glutamate recognizes all three receptor subtypes indicated above, al though not selectively. It is therefore desirable to evaluate the capacity of each of the compounds of the invention to interact with the excitor amino-acid receptors of the CNS.
"Forebrain", that is, the cerebral cortex and the hippocampus, were selected as the receptor tissue and ^3 H-L-glutamate as the ligand for marking this heterogenous receptor population.
Rat cerebral tissue (forebrain without striated tissue) was therefore homogeneised cold in tris buffer at pH 7.4. After washing and centrifuging, the final pellet was resuspended in 50 volumes of tris HCl binding buffer at 7.1. 0.5 ml of receptor membrane thus obtained were then incubated, together with the radioactive tracer and the compounds under test, for 20 min at 37° C. The reaction was terminated by separating the bound radio-ligand from the free radio-ligand by filteration on glass-fibre filters which, after washing, were counted in a liquid scintillator (a β-counter) thus determining the radioactivity associated with the pellet. The specific binding was determined as the difference between the binding in the absence and in the presence of cold 3.6 mM L-glutamate.

[5] = Antagonism of the amnesic effect induced by scopolamine in the passive avoidance test in the rat; type: in vivo; settings: for % Effect vs controls / Latency (STL): FS + SCOP
Procedure: 4) Antagonism of the amnesic effect induced by scopolamine in the "passive avoidance" test in the rat.
The shuttle box equipment was used for passive avoidance as described in Experiment 2 with the following modifications: the compounds (or physiological solutions for the control group) were administered intraperitoneally (IP) 45 min before the training, whereas scopolamine (SCOP) was administered 30 min before the training. The foot shock (FS) consisted of a 0.2 mA shock of 5 sec duration.
The retest to determine memory was executed 24 h after the training. In each individual experiment, the following groups were used: a control group (-FS), a control group (+FS), a control group (FS+SCOP), 3 treatment groups with different doses of the product under test (FS+SCOP).

[6] = 5 min, 5 minutes, read-out: Decrease in immobility (as %) vs the controls
[7] = 0.1 mg/kg IP, rat, retest on the 4th day, 6 treatments
[8] = 1 mg/kg IP, rat, retest on the 4th day, 6 treatments
[9] = 10 mg/kg IP, rat, retest on the 4th day, 6 treatments
[10] = Mus musculus, po, 24 h, read-out: Reversal of the amnesia (% vs controls), as the increase in the Step Down Latency

IC50 [4]: > 1000 µM
Compound: CC1(C)CCC(NC(=O)[C@H](N)CCC(=O)O)CC1 [Compound 24]
Antiamnesic activity (in words) ([1]; OS, mouse): completely inactive
change in vivo at 0.1 mg/kg ([1]; po, 0.1 mg/kg OS, mouse, retest 24 h after training, read-out: Reversal of the amnesia (% vs controls), as the increase in the Step Down Latency): 0%
change in vivo at 1 mg/kg ([1]; po, 1 mg/kg OS, mouse, retest 24 h after training, read-out: Reversal of the amnesia (% vs controls), as the increase in the Step Down Latency): 0%
change in vivo at 10 mg/kg ([1]; po, 10 mg/kg OS, mouse, retest 24 h after training, read-out: Reversal of the amnesia (% vs controls), as the increase in the Step Down Latency): 11%
inhibition in vivo at 3 mg/kg [2, 6]: 0%
inhibition in vivo at 10 mg/kg [2, 6]: 16%
inhibition in vivo at 30 mg/kg [2, 6]: 19%
Antidepressant activity (in words) ([2]; IP): inactive
ED50 (dose antagonising immobility time by 50%) ([2]; IP): Inactive
change in vivo at 0.1 mg/kg [3, 7]: 8%
change in vivo at 1 mg/kg [3, 8]: 0%
change in vivo at 10 mg/kg [3, 9]: 0%
Activity in increasing the avoidance time (in words) ([3]; rat, IP, retest on the 4th day): inactive

IC50 [4]: 33.5 µM
Compound: N[C@@H](CC(=O)O)C(=O)NCCC12CC3CC(CC(C3)C1)C2 [Compound 43]
Antiamnesic activity (in words) ([1]; OS, mouse): less active
change in vivo at 0.3 mg/kg ([1]; po, 0.3 mg/kg OS, mouse, retest 24 h after training, read-out: Reversal of the amnesia (% vs controls), as the increase in the Step Down Latency): 13%
change in vivo at 3 mg/kg ([1]; po, 3 mg/kg OS, mouse, retest 24 h after training, read-out: Reversal of the amnesia (% vs controls), as the increase in the Step Down Latency): 19%
change in vivo at 30 mg/kg ([1]; po, 30 mg/kg OS, mouse, retest 24 h after training, read-out: Reversal of the amnesia (% vs controls), as the increase in the Step Down Latency): 53%
ED50 ([1]; po, OS, mouse, 60 min before training, read-out: ID50 (antiamnesic activity, dose inhibiting the amnesic effect of the ECS by 50%)): 38.3 mg/kg
inhibition in vivo at 1 mg/kg ([2]; 5 min, 1 mg/kg IP, 5 minutes, read-out: Decrease in immobility (as %) vs the controls): 0%
inhibition in vivo at 3 mg/kg [2, 6]: 34%
inhibition in vivo at 10 mg/kg [2, 6]: 60%
inhibition in vivo at 30 mg/kg [2, 6]: 93%
Antidepressant activity (in words) ([2]; IP): antidepressant effect of the same order of magnitude as the comparison drug used, amitriptyline
ED50 ([2]; IP, read-out: ED50 (dose antagonising immobility time by 50%)): 6.4 mg/kg
change in vivo at 0.1 mg/kg [3, 7]: 10%
change in vivo at 1 mg/kg [3, 8]: 16%
change in vivo at 10 mg/kg [3, 9]: 29%
ED30 ([3]; IP, rat, read-out: ED30 (dose increasing the latency time (STL) by 30%)): 16.9 mg/kg

Compound: Nc1c2c(nc3ccccc13)CCCC2 [Tacrine, reference compound]
change in vivo at 0.1 mg/kg [1, 10]: 10%
change in vivo at 1 mg/kg [1, 10]: 9%
change in vivo at 3 mg/kg [1, 10]: 20%
change in vivo at 10 mg/kg [1, 10]: 9%
Antiamnesic activity (in words) ([1]; OS, mouse): inactive
change in vivo at 0.1 mg/kg ([3]; Rattus norvegicus, ip): 7%
change in vivo at 1 mg/kg ([3]; Rattus norvegicus, ip): 6%
change in vivo at 10 mg/kg ([3]; Rattus norvegicus, ip): 12%
Activity in increasing the avoidance time (in words) ([3]; rat, IP, retest on the 4th day): inactive
% Effect vs controls ([5]; 0.3 mg/kg IP): 0%
Latency (STL) ([5]; 0.3 mg/kg IP): 59.7 s
% Effect vs controls ([5]; 1 mg/kg IP): 41.1%
Latency (STL) ([5]; 1 mg/kg IP): 73.1 s
% Effect vs controls ([5]; 3 mg/kg IP): 49.2%
Latency (STL) ([5]; 3 mg/kg IP): 75.3 s
% Effect vs controls ([5]; 10 mg/kg IP): 64.8%
Latency (STL) ([5]; 10 mg/kg IP): 79.5 s
ED50 ([5]; Rattus norvegicus, ip, 24 h, read-out: ID50 (dose antagonizing the amnesic effect of scopolamine by 50%)): 3.4 mg/kg
